Assay results reported in patent US20100298141A1, “SUBSTITUTED PYRIDINE N-OXIDE HERBICIDES” (E. I. DU PONT DE NEMOURS AND COMPANY, priority 2007, published 2010).

Key:
johnsongrass = test: Test C pre-/postemergence test; format: in vivo, Sorghum halepense; conditions: for Plant response rating, Johnsongrass: 31 g ai/ha, scale 0 to 100 (0 no effect, 100 complete control)
Outline: (§1)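 Test chemicals were formulated with surfactant in a non-phytotoxic solvent and sprayed both on freshly planted seeds (preemergence) and on 1- to 4-leaf plants of 2–18 cm (postemergence). Flooded-paddy pots received compound directly into 3 cm of standing water, maintained for the test.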

bermudagrass = test: Test C pre-/postemergence test; format: in vivo, Cynodon dactylon; conditions: for Plant response rating, Bermudagrass: 31 g ai/ha
Outline: as §1

corn [1] = test: Test C pre-/postemergence test; format: in vivo, Zea mays; conditions: for Plant response rating, Corn: 31 g ai/ha, scale 0 to 100 (0 no effect, 100 complete control)
Outline: as §1

kochia = test: Test C pre-/postemergence test; format: in vivo, Kochia scoparia; conditions: for Plant response rating, Kochia: 31 g ai/ha, scale 0 to 100 (0 no effect, 100 complete control)
Outline: as §1

redroot pigweed = test: Test A pre-/postemergence greenhouse test; format: in vivo, Amaranthus retroflexus; conditions: for Plant response rating, Pigweed: 0 to 100 scale where 0 is no effect and 100 is complete control; for Pigweed plant response rating: 0 to 100 scale
Outline: (§2)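 Pots of loam–sand soil sown with the test species are sprayed preemergence on the soil surface; emerged seedlings (1–2 leaves, 2–10 cm) are sprayed postemergence at the same time. The vehicle is a non-phytotoxic solvent mixture with surfactant. Injury is scored visually after ~10 d in greenhouse.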

eastern black nightshade = test: Test C pre-/postemergence test; format: in vivo, Solanum ptycanthum; conditions: for Plant response rating, Nightshade: 31 g ai/ha, scale 0 to 100 (0 no effect, 100 complete control)
Outline: as §1

morningglory [2] = test: Test C pre-/postemergence test; format: in vivo, Ipomoea coccinea; conditions: for Plant response rating, Morningglory: 31 g ai/ha, scale 0 to 100 (0 no effect, 100 complete control)
Outline: as §1

cocklebur = test: Test C pre-/postemergence test; format: in vivo, Xanthium strumarium; conditions: for Plant response rating, Cocklebur: 31 g ai/ha, scale 0 to 100 (0 no effect, 100 complete control)
Outline: as §1

Italian ryegrass = test: Test C pre-/postemergence test; format: in vivo, Lolium multiflorum; conditions: for Plant response rating, Ryegrass, Italian: 31 g ai/ha, scale 0 to 100 (0 no effect, 100 complete control)
Outline: as §1

corn [3] = test: Test A pre-/postemergence greenhouse test; format: in vivo, Zea mays; conditions: for Plant response rating, Corn: 0 to 100 scale where 0 is no effect and 100 is complete control; for Corn plant response rating: 0 to 100 scale
Outline: as §2

yellow nutsedge = test: Test C pre-/postemergence test; format: in vivo, Cyperus esculentus; conditions: for Plant response rating, Nutsedge, Yellow: 31 g ai/ha, scale 0 to 100 (0 no effect, 100 complete control)
Outline: as §1

[4] = system: common (oilseed) sunflower; test: Test C pre-/postemergence test; format: in vivo, Helianthus annuus; conditions: for Plant response rating, Sunflower: 31 g ai/ha, scale 0 to 100 (0 no effect, 100 complete control)
Outline: as §1

wheat = test: Test C pre-/postemergence test; format: in vivo, Triticum aestivum; conditions: for Plant response rating, Wheat: 31 g ai/ha, scale 0 to 100 (0 no effect, 100 complete control)
Outline: as §1

giant foxtail = test: Test C pre-/postemergence test; format: in vivo, Setaria faberii; conditions: for Plant response rating, Foxtail, Giant: 31 g ai/ha, scale 0 to 100 (0 no effect, 100 complete control)
Outline: as §1

rice = test: Test C flooded paddy test; format: in vivo, Oryza sativa; conditions: Flood
Outline: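 Flooded 3 cm over soil; compound into paddy water; depth kept constant. Greenhouse 13–15 d.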

wild oat = test: Test C pre-/postemergence test; format: in vivo, Avena fatua; conditions: for Plant response rating, Oat, Wild: 31 g ai/ha, scale 0 to 100 (0 no effect, 100 complete control)
Outline: as §1

morningglory [5] = test: Test A pre-/postemergence greenhouse test; format: in vivo, Ipomoea spp.; conditions: for Plant response rating, Morningglory: 0 to 100 scale where 0 is no effect and 100 is complete control; for Morningglory plant response rating: 0 to 100 scale
Outline: as §2

[6] = 62 g ai/ha, Preemergence, scale 0 to 100
[7] = 125 g ai/ha, preemergence, scale 0 (no effect) to 100 (complete control)
[8] = preemergence, 250 g ai/ha, scale 0 (no effect) to 100 (complete control)
[9] = 62 g ai/ha, Preemergence, scale 0 to 100 (0 no effect, 100 complete control)
[10] = Preemergence, scale 0 to 100 (0 no effect, 100 complete control)
[11] = Postemergence, 500 g ai/ha, 0 is no effect, 100 is complete control
[12] = Preemergence, 125 g ai/ha, 0 no effect, 100 complete control
[13] = 62 g ai/ha, scale 0 to 100 (0 no effect, 100 complete control)
[14] = 250 g ai/ha, scale 0 to 100, 0 no effect, 100 complete control, 13 to 15 days

Cc1cc([S+]([O-])Cc2c(C(F)(F)F)nn(C)c2OCC(F)(F)F)[n+]([O-])cc1Cl (centres unmarked) [Compound 70]
Johnsongrass plant response rating (johnsongrass; [6]): 100
Johnsongrass plant response rating (johnsongrass; [7]): 100
Plant response rating, Johnsongrass (johnsongrass; Preemergence): 70
Johnsongrass plant response rating (johnsongrass; [8]): 100
Bermudagrass plant response rating (bermudagrass; [9]): 100
Bermudagrass plant response rating (bermudagrass; [7]): 100
Plant response rating, Bermudagrass (bermudagrass; [10]): 100
Bermudagrass plant response rating (bermudagrass; [8]): 100
Corn plant response rating (corn [1]; [6]): 95
Corn plant response rating (corn [1]; [7]): 98
Plant response rating, Corn (corn [1]; Preemergence): 50
Corn plant response rating (corn [1]; [8]): 100
Kochia plant response rating (kochia; [6]): 100
Kochia plant response rating (kochia; [7]): 100
Plant response rating, Kochia (kochia; Preemergence): 100
Kochia plant response rating (kochia; [8]): 100
Plant response rating, Pigweed (redroot pigweed; Postemergence, 125 g ai/ha): 40
Pigweed plant response rating (redroot pigweed; [11]): 80
Pigweed plant response rating (redroot pigweed; [12]): 90
Plant response rating, Pigweed (redroot pigweed; Preemergence, 500 g ai/ha): 100
Nightshade plant response rating (eastern black nightshade; [6]): 100
Nightshade plant response rating (eastern black nightshade; [7]): 100
Plant response rating, Nightshade (eastern black nightshade; Preemergence): 100
Nightshade plant response rating (eastern black nightshade; [8]): 100
Morningglory plant response rating (morningglory [2]; [6]): 80
Morningglory plant response rating (morningglory [2]; [7]): 100
Plant response rating, Morningglory (morningglory [2]; Preemergence): 0
Morningglory plant response rating (morningglory [2]; [8]): 100
Cocklebur plant response rating (cocklebur; [6]): 0
Cocklebur plant response rating (cocklebur; [7]): 0
Plant response rating, Cocklebur (cocklebur; Preemergence): 0
Cocklebur plant response rating (cocklebur; [8]): 0
Ryegrass, Italian plant response rating (Italian ryegrass; [6]): 85
Ryegrass, Italian plant response rating (Italian ryegrass; [7]): 100
Plant response rating, Ryegrass, Italian (Italian ryegrass; Preemergence): 85
Ryegrass, Italian plant response rating (Italian ryegrass; [8]): 100
Plant response rating, Corn (corn [3]; Postemergence, 125 g ai/ha): 50
Corn plant response rating (corn [3]; [11]): 80
Corn plant response rating (corn [3]; [12]): 20
Plant response rating, Corn (corn [3]; Preemergence, 500 g ai/ha): 90
Nutsedge, Yellow plant response rating (yellow nutsedge; [6]): 65
Nutsedge, Yellow plant response rating (yellow nutsedge; [7]): 65
Plant response rating, Nutsedge, Yellow (yellow nutsedge; Preemergence): 60
Nutsedge, Yellow plant response rating (yellow nutsedge; [8]): 95
Sunflower plant response rating [4, 6]: 45
Sunflower plant response rating [4, 7]: 45
Plant response rating, Sunflower ([4]; Preemergence): 0
Sunflower plant response rating [4, 8]: 80
Wheat plant response rating (wheat; [6]): 60
Wheat plant response rating (wheat; [7]): 95
Plant response rating, Wheat (wheat; Preemergence): 15
Wheat plant response rating (wheat; [8]): 95
Foxtail, Giant plant response rating (giant foxtail; [6]): 100
Plant response rating, Foxtail, Giant (giant foxtail; Preemergence): 90
Foxtail, Giant plant response rating (giant foxtail; [8]): 100
Plant response rating, Rice (rice; [13]): 45
Plant response rating, Rice (rice; [14]): 90
Oat, Wild plant response rating (wild oat; [6]): 95
Oat, Wild plant response rating (wild oat; [7]): 100
Plant response rating, Oat, Wild (wild oat; Preemergence): 70
Oat, Wild plant response rating (wild oat; [8]): 100
Plant response rating, Morningglory (morningglory [5]; Postemergence, 125 g ai/ha): 30
Morningglory plant response rating (morningglory [5]; [11]): 70
Morningglory plant response rating (morningglory [5]; [12]): 30
Plant response rating, Morningglory (morningglory [5]; Preemergence, 500 g ai/ha): 100

Cn1nc(C(F)(F)F)c(CS(=O)(=O)c2ccc(Cl)c[n+]2[O-])c1OCC(F)(F)F [Compound 73]
Johnsongrass plant response rating (johnsongrass; [6]): 100
Johnsongrass plant response rating (johnsongrass; [7]): 100
Plant response rating, Johnsongrass (johnsongrass; Preemergence): 70
Johnsongrass plant response rating (johnsongrass; [8]): 100
Bermudagrass plant response rating (bermudagrass; [9]): 100
Bermudagrass plant response rating (bermudagrass; [7]): 100
Plant response rating, Bermudagrass (bermudagrass; [10]): 80
Bermudagrass plant response rating (bermudagrass; [8]): 100
Corn plant response rating (corn [1]; [6]): 0
Corn plant response rating (corn [1]; [7]): 0
Plant response rating, Corn (corn [1]; Preemergence): 0
Corn plant response rating (corn [1]; [8]): 30
Kochia plant response rating (kochia; [6]): 100
Kochia plant response rating (kochia; [7]): 100
Plant response rating, Kochia (kochia; Preemergence): 60
Kochia plant response rating (kochia; [8]): 100
Plant response rating, Pigweed (redroot pigweed; Postemergence, 125 g ai/ha): 10
Pigweed plant response rating (redroot pigweed; [11]): 60
Pigweed plant response rating (redroot pigweed; [12]): 90
Plant response rating, Pigweed (redroot pigweed; Preemergence, 500 g ai/ha): 100
Nightshade plant response rating (eastern black nightshade; [6]): 80
Nightshade plant response rating (eastern black nightshade; [7]): 80
Plant response rating, Nightshade (eastern black nightshade; Preemergence): 0
Nightshade plant response rating (eastern black nightshade; [8]): 85
Morningglory plant response rating (morningglory [2]; [6]): 0
Morningglory plant response rating (morningglory [2]; [7]): 0
Plant response rating, Morningglory (morningglory [2]; Preemergence): 0
Morningglory plant response rating (morningglory [2]; [8]): 0
Cocklebur plant response rating (cocklebur; [6]): 0
Cocklebur plant response rating (cocklebur; [7]): 0
Plant response rating, Cocklebur (cocklebur; Preemergence): 0
Cocklebur plant response rating (cocklebur; [8]): 0
Ryegrass, Italian plant response rating (Italian ryegrass; [6]): 10
Ryegrass, Italian plant response rating (Italian ryegrass; [7]): 60
Plant response rating, Ryegrass, Italian (Italian ryegrass; Preemergence): 0
Ryegrass, Italian plant response rating (Italian ryegrass; [8]): 98
Plant response rating, Corn (corn [3]; Postemergence, 125 g ai/ha): 0
Corn plant response rating (corn [3]; [11]): 0
Corn plant response rating (corn [3]; [12]): 0
Plant response rating, Corn (corn [3]; Preemergence, 500 g ai/ha): 30
Nutsedge, Yellow plant response rating (yellow nutsedge; [6]): 0
Nutsedge, Yellow plant response rating (yellow nutsedge; [7]): 40
Plant response rating, Nutsedge, Yellow (yellow nutsedge; Preemergence): 0
Nutsedge, Yellow plant response rating (yellow nutsedge; [8]): 80
Sunflower plant response rating [4, 6]: 0
Sunflower plant response rating [4, 7]: 35
Plant response rating, Sunflower ([4]; Preemergence): 0
Sunflower plant response rating [4, 8]: 40
Wheat plant response rating (wheat; [6]): 0
Wheat plant response rating (wheat; [7]): 10
Plant response rating, Wheat (wheat; Preemergence): 0
Wheat plant response rating (wheat; [8]): 20
Foxtail, Giant plant response rating (giant foxtail; [6]): 10
Foxtail, Giant plant response rating (giant foxtail; [7]): 80
Plant response rating, Foxtail, Giant (giant foxtail; Preemergence): 10
Foxtail, Giant plant response rating (giant foxtail; [8]): 80
Plant response rating, Rice (rice; [13]): 0
Plant response rating, Rice (rice; [14]): 20
Oat, Wild plant response rating (wild oat; [6]): 40
Oat, Wild plant response rating (wild oat; [7]): 60
Plant response rating, Oat, Wild (wild oat; Preemergence): 40
Oat, Wild plant response rating (wild oat; [8]): 90
Plant response rating, Morningglory (morningglory [5]; Postemergence, 125 g ai/ha): 0
Morningglory plant response rating (morningglory [5]; [11]): 20
Morningglory plant response rating (morningglory [5]; [12]): 20
Plant response rating, Morningglory (morningglory [5]; Preemergence, 500 g ai/ha): 40
